System: Primary cultures of astrocytes
Assay: Activation of astrocytes (morphological change in primary astrocyte cultures)
Assay type: cell-based, Fischer 344 rats
Conditions: 6 hours after start of treatment, serum-free medium, microscope 200× magnification, versus polygonal flat control cells (FIG. 1/7)
Method: 1) Activation of Astrocytes
Primary cultures of astrocytes were obtained from the cerebral cortical tissue of newborn Fischer 344 rats within 24 hours after birth. The brains were dissected out of the vault of the cranium under sterile conditions, the cortical tissue (cortex) was isolated, and the cells were dissociated through a narrow-mesh wire netting. The cells were put into cell culture bottles and cultivated in serum-containing DMEM solution (contained fetal calf serum and a penicillin/streptomycin mixture) until the cells were confluent. Oligodendrocytes and microglia were removed by washing with cold buffer solution. The confluent astrocytes were then detached from the base of the culture bottles with a trypsin solution and seeded in a density of 20 000 cells/cm2 in Petri dishes on coverslips and cultivated in serum-containing medium until the cells were again confluent. Two days after confluence, the medium was replaced by serum-free medium and, after 24 hours, the medium was replaced again, likewise by serum-free medium. Twenty-four hours after the second replacement of medium, salmeterol was added. Six hours after the treatment, the astrocytes were photographed under the microscope with 200× magnification to document the morphological changes (FIG. 1/7).

SMILES: OCc1cc(C(O)CNCCCCCCOCCCCc2ccccc2)ccc1O (stereo not shown) [salmeterol]
- morphological changes of astrocytes (activation): activated, stellate and refractile astrocytes

Source: patent US20040248984A1, “Use of $g(b)-adrenoceptor agonists for the treatment of neurodegenerative diseases” (priority 2001, published 2004)
